Measurements published in a melting point compilation (Tetko et al.; mined from patent text by program, amines drawn as free bases though some values may be those of a salt).

SMILES	melting point [°C]
Nc1ccc2oc3c(OC(F)F)ccc(C(=O)Nc4c(Cl)cncc4Cl)c3c2c1	87 to 89
O=c1c(Br)c(OCc2ccccc2)ccn1Cc1cccc(C(F)(F)F)c1	182
CC(C)Nc1ncc2c(n1)N(C)C(=O)C2	120 to 123
Cc1ccc2c3c(c(=O)[nH]c2c1)C(=O)c1ccccc1-3	> 290
CCOc1ccc(OCc2ccc(OCc3nc(-c4ccccc4)oc3C)cc2)c(CCC(=O)O)c1	115 to 116
CCOC(=O)NC(=S)Nc1ccsc1C(=O)OC	165 to 167
CCOC(=O)c1c(Nc2cccc3ccccc23)n[nH]c1C	199 to 202
Cc1cc2cnccc2s1	47 to 48
N#Cc1ccc(Cc2ccc(O)cc2)cc1	163 to 164
CS(=O)(=O)c1ccc(Oc2cc(OC3CCOCC3)c3[nH]c(C4=NCC(CCO)S4)cc3c2)nc1 (stereo not given)	165 to 166
Cc1ccc2cc3nc4cccc(Cl)c4c-3[nH]c2c1	193 to 194
COc1cccc([C@H]2O[C@H](CC(=O)NS(=O)(=O)CCCO)C(=O)N(CC(C)(C)CO)c3ccc(Cl)cc32)c1OC	133 to 135
Cc1nc2c(O[C@@H]3c4ccccc4C[C@H]3O)cc(C(=O)NC3CC3)cc2n1C (relative stereo)	148 to 149
Cc1nc(NC(=O)c2cnn3c(C(F)(F)F)cc(-c4ccc(C(F)(F)F)c(Cl)c4)nc23)sc1S(N)(=O)=O	299
CSc1cc(C)nc(SC)c1NC(=O)CCCCCCCSc1nc2ccccc2o1	119 to 122
O=c1ccn(-c2cccc(C(F)(F)F)c2)nc1-c1ccnn1-c1cccc(F)c1	104 to 105
CCCCCCCCCCCCCCCC(=O)Oc1ccc(C(O)CNCCc2ccc(OC)c(OC)c2)cc1 (stereo not given)	79 to 81
CCCCc1cc(O)cc(=O)o1	110 to 111
O=C(O)c1cc(Br)nc(Br)c1	179 to 187
CC(=O)OC(C(=O)O)c1c(C(C)C)cc(C(C)C)cc1C(C)C (stereo not given)	166 to 169
CC(C)c1cc2ncnn2nc1SCCCCl	82 to 83
COc1cc(OC)nc(NC(=O)NS(=O)(=O)c2sccc2C(CCl)OC(C)=O)n1 (stereo not given)	150 to 151
Oc1nc(S)nc2c(-c3ccccc3)cnn12	251
O=C(O)c1ccccc1OCCNC(=O)C1Cc2ccccc2N1S(=O)(=O)c1ccc(-c2cccc(C(F)(F)F)c2)cc1 (stereo not given)	70
O=C(CN1CCN(CC(=O)N2CCC3(CC2)Cn2cc([N+](=O)[O-])nc2O3)CC1)Nc1ccc(C(F)(F)F)cc1	133 to 135

SMILES	melting point [°C]
CC1(C(=O)Nc2ccc(-n3nc(C(F)(F)F)cc3C(F)(F)F)cc2)C=CCCC1 (stereo not given)	108 to 110
Cn1c(=O)ccc2cc(CBr)ccc21	99 to 100
N#CC(c1ccccc1Cl)N1CCc2sccc2C1 (stereo not given)	121 to 124
Cc1cc(C)c2c(=O)n(CC(=O)N3CCNCC3)sc2n1	175 to 177
O=C(O)c1ccccc1Sc1ccccc1[N+](=O)[O-]	169 to 171
C=Cc1c(NCc2ccco2)nc(C2CC2)nc1C(=O)OC	85 to 86
N#Cc1ccc2[nH]cc(CCN3C(=O)c4ccccc4C3=O)c2c1	217 to 221
CCN1c2ncccc2C(=S)N(C)c2cccnc21	157 to 158
COc1cc(N(C)C)c(Cl)cc1C(=O)NCC1CN(Cc2ccc(C#N)cc2)CCO1 (stereo not given)	161 to 163
O=C(Nc1cccc([N+](=O)[O-])c1)NC1CC(C(=O)O)Nc2cc(Cl)cc(Cl)c21 (stereo not given)	209 to 210
COc1nc2cc(Cl)c(Cl)c(N(CC(C)O)S(C)(=O)=O)c2nc1OC (racemic)	176 to 177
Cn1cc(CC(SSC(Cc2cn(C)c3ccccc23)C(=O)O)C(=O)O)c2ccccc21 (stereo not given)	158 to 160
O=C(c1ccccc1)C1CCN(CCS(=O)c2ccc3[nH]c(=O)oc3c2)CC1 (stereo not given)	68 to 72
N#Cc1ncnc2[nH]ccc12	237 to 238
C#CCOc1ccc(-c2nc3ccccc3o2)cc1	124 to 127
O=C(O)c1cc(NC(=O)C(CS)Cc2ccccc2)cc(C(F)(F)F)c1 (stereo not given)	71 to 74
CC(C)Oc1ccc(-c2ccc3nnn(Cc4ccc5ncccc5c4)c3n2)cc1F	128 to 130
CN1CCN(Cc2cccc(-c3cc4c(Nc5cccc6[nH]ccc56)c(C#N)cnc4s3)c2)CC1	> 245
CCOc1ccc(-c2nc(-c3cccc(C(C#N)C(=O)OC)n3)cs2)cc1OCC (stereo not given)	240 to 242
Cc1c(N2CCNCC2)nn2c(-c3ccncc3)c(-c3ccc(F)cc3)nc2c1C	233 to 235
CNC(=O)c1cc2c(Oc3ccc(COCCOC)cc3)cncc2s1	133 to 134
COC(=O)C=CC(C)=Cc1cc(N)ccc1Cl	47 to 50
FC(F)(F)c1cc(Cl)c(-n2ncc(-c3nc(Br)c(Br)[nH]3)n2)c(Cl)c1	234 to 235
CN(C)c1ccnc(CSc2c[nH]c3ccccc23)c1	189 to 191
NP(N)(=O)NC(=O)CCc1ccccc1	> 300
